Measurements published in the supplement of paper PMC10627819.

Columns and labels:
Experiment in all cases: Bliss interaction score (quartile over a dose matrix) (fitness difference); higher = more antagonism (negative = synergy)
S. aureus DSM 20231 = test system: S. aureus DSM 20231
How it was run: (§1)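 Quartiles of the Bliss score were taken over technical, biological and donor/recipient replicates. That score is observed fitness minus the product of the single-drug fitness values, which were inferred from combination data. Fitness itself is OD595 at entry into stationary phase divided by the plate's robust no-drug mean, with a cap at 1.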

S. aureus Newman = test system: S. aureus Newman
How it was run: as §1

S. pneumoniae D39V = test system: S. pneumoniae D39V
How it was run: as §1

B. subtilis 168 = test system: B. subtilis 168
How it was run: as §1
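Further: first quartile when negative (synergy) and third quartile when positive (antagonism).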

SMILES	Bliss interaction score (S. aureus DSM 20231)	Bliss interaction score (S. aureus Newman)	Bliss interaction score (S. pneumoniae D39V)	Bliss interaction score (B. subtilis 168)	Bliss interaction score (S. aureus DSM 20231; main component drawn)	Bliss interaction score (S. aureus Newman; main component drawn)	Bliss interaction score (S. pneumoniae D39V; main component drawn)	Bliss interaction score (B. subtilis 168; main component drawn)
Clc1ccc(COC(Cn2ccnc2)c2ccc(Cl)cc2Cl)c(Cl)c1 (configuration not stated) [Miconazole] + CN[C@H](CC(C)C)C(=O)N[C@H]1C(=O)N[C@@H](CC(N)=O)C(=O)N[C@H]2C(=O)N[C@H]3C(=O)N[C@H](C(=O)N[C@H](C(=O)O)c4cc(O)cc(O)c4-c4cc3ccc4O)[C@H](O[C@H]3C[C@](C)(N)[C@@H](O)[C@H](C)O3)c3ccc(c(Cl)c3)Oc3cc2cc(c3O[C@@H]2O[C@H](CO)[C@@H](O)[C@H](O)[C@H]2O[C@H]2C[C@](C)(NCc3ccc(-c4ccc(Cl)cc4)cc3)[C@@H](O)[C@H](C)O2)Oc2ccc(cc2Cl)[C@H]1O [Oritavancin]	-0.0286	-0.0754	-0.0639	-0.0225	–	–	–	–
O=C(O)[C@H]1/C(=C/CO)O[C@@H]2CC(=O)N21 [Clavulanic] + Cc1cc(NS(=O)(=O)c2ccc(N)cc2)no1 [Sulfamethoxazol]	0.0966	-0.0365	0.0674	0.0509	–	–	–	–
O=C(O)[C@H]1/C(=C/CO)O[C@@H]2CC(=O)N21 [Clavulanic] + CN[C@H](CC(C)C)C(=O)N[C@H]1C(=O)N[C@@H](CC(N)=O)C(=O)N[C@H]2C(=O)N[C@H]3C(=O)N[C@H](C(=O)N[C@H](C(=O)O)c4cc(O)cc(O)c4-c4cc3ccc4O)[C@H](O[C@H]3C[C@](C)(N)[C@@H](O)[C@H](C)O3)c3ccc(c(Cl)c3)Oc3cc2cc(c3O[C@@H]2O[C@H](CO)[C@@H](O)[C@H](O)[C@H]2O[C@H]2C[C@](C)(NCc3ccc(-c4ccc(Cl)cc4)cc3)[C@@H](O)[C@H](C)O2)Oc2ccc(cc2Cl)[C@H]1O [Oritavancin]	0.0726	0.197	0.0545	-0.0388	–	–	–	–
O=C(O)[C@H]1/C(=C/CO)O[C@@H]2CC(=O)N21 [Clavulanic] + CO[C@@H]1[C@@H](OC(N)=O)[C@@H](O)[C@H](Oc2ccc3c(O)c(NC(=O)c4ccc(O)c(CC=C(C)C)c4)c(=O)oc3c2C)OC1(C)C [Novobiocin]	0.116	0.177	-0.0784	0.0384	–	–	–	–
O=C(O)[C@H]1/C(=C/CO)O[C@@H]2CC(=O)N21 [Clavulanic] + CCCCCCCCCC(=O)N[C@@H]1[C@H]([C@@H]([C@H](O[C@H]1OC2=C3C=C4C=C2OC5=C(C=C(C=C5)[C@H]([C@H]6C(=O)N[C@@H](C7=C(C(=CC(=C7)O)OC8[C@H]([C@H]([C@@H]([C@H](O8)CO)O)O)O)C9=C(C=CC(=C9)[C@H](C(=O)N6)NC(=O)[C@@H]4NC(=O)[C@@H]1C2=CC(=CC(=C2)OC2=C(C=CC(=C2)[C@H](C(=O)N[C@H](CC2=CC(=C(O3)C=C2)Cl)C(=O)N1)N)O)O)O)C(=O)O)O[C@H]1[C@@H]([C@H]([C@@H]([C@H](O1)CO)O)O)NC(=O)C)Cl)CO)O)O [Teicoplanin]	–	–	–	–	0.119	-0.059	-0.0601	-0.178
Cc1cc(NS(=O)(=O)c2ccc(N)cc2)no1 [Sulfamethoxazol] + Oc1cc(Cl)ccc1Oc1ccc(Cl)cc1Cl [Triclosan]	0.0924	0.0302	-0.0608	0.0965	–	–	–	–
Cn1c2cccc(=O)c-2nc2ccccc21 [Pyocyanin] + Oc1cc(Cl)ccc1Oc1ccc(Cl)cc1Cl [Triclosan]	0.037	0.0494	-0.0544	-0.0279	–	–	–	–
O=C(O)[C@H]1/C(=C/CO)O[C@@H]2CC(=O)N21 [Clavulanic] + C[C@H]1c2cccc(O)c2C(=O)C2=C(O)[C@]3(O)C(=O)C(C(N)=O)=C(O)[C@@H](N(C)C)[C@@H]3[C@@H](O)[C@@H]21 [Doxycycline]	-0.273	0.268	-0.0431	0.0656	–	–	–	–
CC[C@H]1OC(=O)[C@H](C)[C@@H](O[C@H]2C[C@@](C)(OC)[C@@H](O)[C@H](C)O2)[C@H](C)[C@@H](O[C@@H]2O[C@H](C)C[C@H](N(C)C)[C@H]2O)[C@](C)(O)C[C@@H](C)CN(C)[C@H](C)[C@@H](O)[C@]1(C)O [Azithromycin] + C[C@@H](O)[C@H]1C(=O)N2C(C(=O)O)=C(SCCNC=N)C[C@H]12 [Imipenem]	-0.0324	-0.0196	0.0485	0.105	–	–	–	–
CC[C@H]1OC(=O)[C@H](C)[C@@H](O[C@H]2C[C@@](C)(OC)[C@@H](O)[C@H](C)O2)[C@H](C)[C@@H](O[C@@H]2O[C@H](C)C[C@H](N(C)C)[C@H]2O)[C@](C)(O)C[C@@H](C)CN(C)[C@H](C)[C@@H](O)[C@]1(C)O [Azithromycin] + C1=CC(=CC(=C1)Cl)NN=C(C#N)C#N [CCCP]	-0.0316	-0.0482	-0.0621	-0.104	–	–	–	–
O=C(O)[C@H]1/C(=C/CO)O[C@@H]2CC(=O)N21 [Clavulanic] + CO[C@@]12[C@H](COC(N)=O)C3=C(C(=O)C(C)=C(N)C3=O)N1C[C@@H]1N[C@@H]12 [MitomycinC]	-0.0996	0.129	-0.0718	-0.113	–	–	–	–
O=C(O)[C@H]1/C(=C/CO)O[C@@H]2CC(=O)N21 [Clavulanic] + COc1cccc2c1C(=O)c1c(O)c3c(c(O)c1C2=O)C[C@@](O)(C(=O)CO)C[C@@H]3O[C@H]1C[C@H](N)[C@H](O)[C@H](C)O1 [Doxorubicin]	0.0451	0.0836	0.0444	0.067	–	–	–	–
Clc1ccc(COC(Cn2ccnc2)c2ccc(Cl)cc2Cl)c(Cl)c1 (configuration not stated) [Miconazole] + CO[C@@H]1[C@@H](OC(N)=O)[C@@H](O)[C@H](Oc2ccc3c(O)c(NC(=O)c4ccc(O)c(CC=C(C)C)c4)c(=O)oc3c2C)OC1(C)C [Novobiocin]	0.0483	0.0415	0.121	0.0735	–	–	–	–
